The text below walks through data of US12522593B2, “Azacycloalkyl carbonyl cyclic amine compound” (Alivexis, Inc., priority 2022, dated 2026).

Molecules are shown by their SMILES.

One assay concerns the target human recombinant CTSC (Homo sapiens (Human), UniProt P53634). Description: CTSC inhibition assay (in vitro), fluorescent substrate GF-AFC. It counts as biochemical. Particulars: 30 μmol/L GF-AFC, pH 5.0, 25° C. Here is the method:
1. CTSC Inhibition Assay (In Vitro)
A test specimen was evaluated by a CTSC inhibition assay using a fluorescent substrate GF-AFC (Gly-Phe-7-Amino-4-trifluoromethylcoumarin, MP Biomedical, 03AFC03325). Since the GF-AFC is converted by CTSC to aminotrifluoromethylcoumarin having a specific fluorescence wavelength and the produced amount is proportional to CTSC activity, quantitative analysis was performed by measuring a fluorescence intensity with a plate reader. CTSC inhibition assay for each compound was performed using a polystyrene-made non-adhesive surface-treated black 384 well plate under the following conditions.
A human recombinant CTSC (R&D systems, 1071-CY) was dissolved in a CTSC active cocktail (20 ng/mL of human recombinant cathepsin L (R&D systems, 952-CY, 25 mmol/L MES/NaOH (pH: 6.0), 5 mmol/L dithiothreitol (DTT)) so as to be 100 ng/mL and incubated at 18° C. for 30 minutes. The solution was diluted with a CTSC assay buffer (50 mmol/L MES/NaOH (pH: 5.0), 50 mmol/L NaCl, 0.001% Triton X-100, mmol/L DTT) so as to be 2 ng/mL in a case of performing CTSC inhibition assay.
The test specimen was dissolved in dimethylsulfoxide (DMSO) at 10 mmol/L to prepare a stock solution. In a case where a solution in which the stock solution was diluted 15-fold with DMSO was used as the maximum evaluation concentration (0.667 mmol/L), 5-fold dilution was repeated in DMSO from the solution to prepare a serially diluted solution. 248.8 μL of the CTSC assay buffer was added to 1.12 μL of the serially diluted sample prepared in the DMSO to prepare a solution of a CTSC inhibition assay compound.
The final composition of the CTSC inhibition assay mixture was 0.66 ng/mL activated CTSC, 50 mmol/L MES/NaOH (pH: 5.0), 50 mmol/L NaCl, 0.001% Triton X-100, 5 mmol/L DTT, 30 μmol/L GF-AFC, and 0.15% DMSO, and the procedure was as follows. That is, 4 μL of the compound solution and 4 μL of the 2 ng/mL activated CTSC solution were mixed with each other in a 384 well plate and incubated at 25° C. for 30 minutes. Thereafter, 4 μL of the GF-AFC solution dissolved in the CTSC assay buffer was added to the mixture so as to be 90 μmol/L. After mixing to be uniform, a fluorescence emission intensity at 505 nm in a case of being excited at 390 nm after incubating at 25° C. for 1 hour was measured with a plate reader. A 4-parameter regression analysis was performed with GraphPad Prism (manufactured by GraphPad Software) from a plot of the fluorescence intensity at 505 nm and the sample concentration, and an IC50 value was calculated.
Results of test compounds of Formula (I) are shown in Table 1 as IC50 (nM) values for which 50% inhibition concentration is calculated based on CTSC inhibition (%). In the table, Ex indicates an example number.

The target of another assay is CTSC in U937 cells (Homo sapiens (Human), UniProt P53634). Description: Intracellular CTSC inhibition assay (in vitro), LLOMe-induced cell death in U937 cells. Format: cell-based. Conditions: 3 hours culture, CellTiter-Glo. The procedure:
2. Intracellular CTSC Inhibition Assay (In Vitro)
A test specimen was evaluated by a degree of cell death in a case where a substrate LLOMe (L-Leucyl-L-Leucine methyl ester, hydrobromide salt, Sigma, 555045152) was added to U937 cells. The LLOMe is taken up into the cells by endocytosis and cleaved by CTSC. A product thereof induces lysosomal damage in cells and causes cell death in leukocytes and the like. Therefore, since the degree of cell death correlates with an amount of degradation of LLOMe, that is, with CTSC activity, by quantitatively analyzing the cell death, CTSC inhibitory activity of the test specimen in the cell was determined. CTSC inhibition assay was performed using a polystyrene-made white 384 well plate.
As the test specimen, a stock solution dissolved in DMSO was prepared so as to be 0.2 mmol/L, and in a case where a solution in which the stock solution was diluted 50-fold with a RPMI-1640 medium including 10% FBS was used as the maximum evaluation concentration (4000 nmol/L), a serially diluted solution was prepared by diluting the solution 3-fold with the medium. Thereafter, a 4-fold concentrated test specimen solution with the target final concentration was prepared.
U937 cells were cultured in a RPMI-1640 medium including 10% FBS, and diluted to prepare 90,000 cells/mL of cell suspension on the day of assay. 10 μL of the cell suspension was seeded per well. Next, 10 μL of the test specimen solution having a concentration 4 times the target final concentration was added thereto, and the mixture was allowed to stand for 30 minutes. Thereafter, 20 μL of a 300 μmol/L LLOMe solution dissolved in a RPMI-1640 medium including 10% FBS was added thereto, and the cells were cultured for 3 hours. After completion of the culture, 40 μL of CellTiter-Glo (registered trademark) reagent (Promega, G7570) was added to each well and mixed. After 15 minutes, 20 μL of the reaction solution in each well was transferred to a white 384 well plate, and a chemiluminescence intensity was measured with a plate reader. A 4-parameter regression analysis was performed with GraphPad Prism (manufactured by GraphPad Software) from a plot of the luminescence intensity and the sample concentration, and an IC50 value was calculated.
Results of test compounds of Formula (1) are shown in Table 2 as IC50 (nM) values for which 50% inhibition concentration is calculated based on CTSC inhibition (%). In the table, Ex indicates an example number.

The IC50 is the concentration at which inhibition is half-maximal.

human recombinant CTSC, sequence (P53634 25-134): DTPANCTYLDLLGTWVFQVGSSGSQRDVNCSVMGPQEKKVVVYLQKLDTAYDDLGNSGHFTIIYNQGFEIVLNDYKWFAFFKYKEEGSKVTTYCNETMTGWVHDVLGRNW
human recombinant CTSC, sequence (P53634 231-394): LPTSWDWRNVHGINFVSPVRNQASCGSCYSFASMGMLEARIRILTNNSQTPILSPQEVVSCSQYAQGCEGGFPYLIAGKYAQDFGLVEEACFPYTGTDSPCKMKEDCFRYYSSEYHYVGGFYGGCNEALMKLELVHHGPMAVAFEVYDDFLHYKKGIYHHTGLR
human recombinant CTSC, sequence (P53634 395-463): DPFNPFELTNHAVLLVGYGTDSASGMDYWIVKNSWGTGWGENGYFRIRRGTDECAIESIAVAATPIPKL
CTSC in U937 cells, sequence (P53634 25-463): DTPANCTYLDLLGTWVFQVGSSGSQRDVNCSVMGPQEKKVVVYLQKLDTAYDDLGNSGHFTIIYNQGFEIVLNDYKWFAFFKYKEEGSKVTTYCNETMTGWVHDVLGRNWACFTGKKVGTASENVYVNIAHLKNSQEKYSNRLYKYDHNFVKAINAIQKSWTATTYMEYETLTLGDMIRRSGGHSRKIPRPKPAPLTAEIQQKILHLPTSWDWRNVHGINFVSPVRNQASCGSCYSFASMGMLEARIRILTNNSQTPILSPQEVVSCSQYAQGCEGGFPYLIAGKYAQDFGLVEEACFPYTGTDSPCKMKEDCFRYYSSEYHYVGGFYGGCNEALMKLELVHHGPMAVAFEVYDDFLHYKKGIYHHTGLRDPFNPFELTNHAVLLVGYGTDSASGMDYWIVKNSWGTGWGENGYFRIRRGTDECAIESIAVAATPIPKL

As for `CC(C)C1(c2nc(C3CC(C)(C)C3)no2)CN(C(=O)[C@@H]2CC[C@@]3(CCO3)CN2)C1` [Example 29], the IC50 on human recombinant CTSC came to 1.47 nM; on CTSC in U937 cells, 11.3 nM.

In the case of `CC(C)C1(c2noc(C3CCC(F)(F)CC3)n2)CCN(C(=O)[C@@H]2C[C@H](S(C)(=O)=O)CN2)CC1` [Example 30], the IC50 at human recombinant CTSC and against CTSC in U937 cells was above 1000 nM each time.

For the compound `O=C([C@@H]1C[C@@H](O)C2(CCC2)CN1)N1CCC(c2noc(C3CCC(F)(F)CC3)n2)(C(F)(F)F)CC1` [Example 31, (4-(5-(4,4-Difluorocyclohexyl)-1,2,4-oxadiazol-3-yl)-4-(trifluoromethyl)piperidin-1-yl)((7S,9R)-9-hydroxy-6-azaspiro[3.5]nonan-7-yl)methanone], the figures for the IC50 on human recombinant CTSC and at CTSC in U937 cells were 0.31 nM and 0.22 nM, respectively.

Consider `O=C([C@@H]1C[C@@H](O)C2(CCC2)CN1)N1CCC(C(=O)N2CCOC3(CC3)C2)(C(F)(F)F)CC1` [Example 32], for which the IC50 on human recombinant CTSC worked out at 25.5 nM; at CTSC in U937 cells, 8.84 nM.

Regarding `CC(NC(=O)C1(C(F)(F)F)CCN(C(=O)[C@@H]2CC[C@@]3(CCO3)CN2)CC1)C1CCC(F)(F)CC1` (some centres unmarked) [Example 33], the 50% inhibitory concentration (IC50) is 2.62 nM on human recombinant CTSC and 7.5 nM against CTSC in U937 cells.

With `CC(C)C1(c2noc(C3CCC(F)(F)CC3)n2)CCN(C(=O)[C@@H]2C[C@@H](O)CCN2)CC1` [Example 34], the results for the IC50 on human recombinant CTSC and at CTSC in U937 cells were above 1000 nM and above 333 nM, respectively.

In the case of `O=C([C@@H]1C[C@@H](O)C2(CCC2)CN1)N1CCC(C(=O)N2CCC(C(F)(F)F)C2)(C(F)(F)F)CC1` (some centres unmarked) [Example 35], the IC50 turned out to be 3.39 nM at human recombinant CTSC and 6.54 nM at CTSC in U937 cells.

As for `CC(C)C1(c2noc(C3CCC(F)(F)CC3)n2)CCN(C(=O)[C@@H]2C[C@@H](O)C(C)(C)CN2)CC1` [Example 36], the IC50 at human recombinant CTSC came out at 1.88 nM; at CTSC in U937 cells it was 0.71 nM.

For `O=C([C@@H]1C[C@@H](O)C2(CCC2)CN1)N1CCC(C(=O)N2CCO[C@@H](C(F)(F)F)C2)(C(F)(F)F)CC1` [Example 37], the IC50 was 28.4 nM on human recombinant CTSC and 10.1 nM against CTSC in U937 cells.

As for `CC(C)C1(c2noc(C3CCC(F)(F)CC3)n2)CCN(C(=O)[C@H]2N[C@H]3CC[C@@H]2[C@H](O)C3)CC1` [Example 38], the IC50 was above 200 nM at human recombinant CTSC and 124 nM at CTSC in U937 cells.

For the compound `O=C([C@@H]1C[C@@H](O)C2(CCC2)CN1)N1CCC(C(=O)N2CCO[C@H](C(F)(F)F)C2)(C(F)(F)F)CC1` [Example 39], the IC50 at human recombinant CTSC was determined as 13.3 nM; on CTSC in U937 cells, 7.18 nM.

`O=C([C@@H]1CC[C@@]2(CCO2)CN1)N1CCC(c2noc(C3CC(F)(F)C3)n2)(C(F)(F)F)CC1` [Example 40]: the IC50 at human recombinant CTSC was 19.6 nM; against CTSC in U937 cells, 37.9 nM.

With `CC(C)C1(c2noc(C3CCC(F)(F)CC3)n2)CCN(C(=O)C2CCC(C)(C)CN2)CC1` (centres unmarked) [Example 41], the IC50 is 18.5 nM at human recombinant CTSC and 6.95 nM against CTSC in U937 cells.

On to `CC(C)C1(c2noc(C3CCC(F)(F)CC3)n2)CCN(C(=O)C2CCC3(CCC3)CN2)CC1` (centres unmarked) [Example 42], for which the IC50 at human recombinant CTSC was determined as 7.19 nM; on CTSC in U937 cells, 2.28 nM.

Take `CC1CC[C@@H](C(=O)N2CCC(c3noc(C4CCC(F)(F)CC4)n3)(C(C)C)CC2)NC1` (some centres unmarked) [Example 43]: the figures for the IC50 on human recombinant CTSC and against CTSC in U937 cells were above 100 nM and 57.3 nM, respectively.

In the case of `O=C([C@@H]1C[C@@H](O)C2(CCC2)CN1)N1CCC(c2ccc(F)cn2)(c2noc(C3CC(F)(F)C3)n2)CC1` [Example 44], the IC50 at human recombinant CTSC was 2.74 nM; at CTSC in U937 cells, 4.24 nM.

In the case of `CC1(c2nc(C3(C(F)(F)F)CCN(C(=O)[C@@H]4C[C@@H](O)C5(CCC5)CN4)CC3)no2)CC(F)(F)C1` [Example 45], the IC50 on human recombinant CTSC worked out at 1.88 nM; on CTSC in U937 cells, 0.17 nM.

Regarding `CC(C)C1(c2noc(C3CCC(F)(F)CC3)n2)CCN(C(=O)[C@@H]2CCC3(CC3)CN2)CC1` [Example 46], the figures for the IC50 on human recombinant CTSC and against CTSC in U937 cells were 53.5 nM and 42.5 nM, respectively.

For `O=C(c1nc(C2(C(F)(F)F)CCN(C(=O)[C@@H]3C[C@@H](O)C4(CCC4)CN3)CC2)no1)N1CCC(F)(F)CC1` [Example 48], the IC50 at human recombinant CTSC stood at 3.07 nM; on CTSC in U937 cells, 4 nM.
